Experimental data reported in US10201523B2, “Use of wilforlide A for overcoming chemotherapy resistance” (WESTERN UNIVERSITY OF HEALTH SCIENCES, priority 2013, dated 2019).
Where “and” joins values, the source holds several entries; their conditions need not be identical. Equal values may be shown once.

Columns and labels:
PC3-TxR [1] = experiment: SRB cell viability assay, 72 h wilforlide A dose-response; assay type: cell-based, human; conditions: for A at 565 nm: background = 0.044
Experimental: The determination of the wilforlide A IC50. The IC50 for wilforlide A was determined in vitro for the purpose of identifying wilforlide A concentrations that could be used for determining its chemosensitizing effect (CE) in cell cultures of the docetaxel-resistant prostate cancer line PC3-TxR (Obtained from Prof. Evan T. Keller, University of Michigan).
Post-recovery, the plating media was aspirated from the cell cultures, and replaced with 50 μl per well of RPMI containing a designated concentration of wilforlide A. Then, the cells were incubated in the presence of the wilforlide A media for 72 hours. The 50 μl wilforlide A aliquots were prepared by making 1:3 serial dilutions of a wilforlide A stock solution (0.5 mg/ml in DMSO) to with concentrations ranging from 1×10^2 to 1×10^−3 μg/ml.

[2] = Maximum tolerated dose study, single and multiple dose (sdMTD, mdMTD); assay type: in vivo; conditions: single and multiple (daily, 7 days) dose, CD-1 mice
Experimental: Maximum tolerated dose (MTD)s of wilforlide A were determined for single MTD (sdMTD) and multiple dose MTD (mdMTD) protocols. […] A seven day-long sdMTD study was performed in which the single dose was administered on day one. A seven day-long mdMTD study was also performed in which wilforlide was administered daily.
(§1) The administration routes used in these studies were intravenous (i.v.), oral gavage (p.o.), and intraperitoneal (i.p.) administration. […] More specifically, working concentrations of wilforlide A were prepared by: (i) dissolving wilforlide A inDMSO at a concentration of 3 mg/ml at 80° C. for use with i.p. administration; (ii) dissolving wilforlide A in Capmul™ at a concentration of 3 mg/ml for use with p.o. administration; and (iii) dissolving wilforlide A inDMSO at a concentration of 1.5 mg/ml at 80° C., and then diluted ten times in 40% HBCD (w/v) for use with i.v. administration. […] Thus, the MTD study was started with these doses.
For each dose regimen tested, 12 CD-1 mice (6 males and 6 females) received appropriate volume of each wilforlide A preparation. The mice were housed with food and water ad libitum. All mice were monitored for the four hour period that immediately followed wilforlide A administration for indications of acute toxicity, as well as monitored at least 3 times daily for one week for indications of delayed toxicity. The mice were also weighed 24 hours post treatment as well as every other day during the week-long study.

PC3 = experiment: SRB cell viability assay, docetaxel with/without wilforlide A pretreatment; conditions: PC3 (docetaxel-sensitive); 0.6, 1.25 or 2.5 μg/ml pretreatment
DU145-TxR = experiment: as above; assay type: cell-based; conditions: DU145-TxR (docetaxel-resistant); 2.5 μg/ml pretreatment
From the text: FIG. 4 summarizes the data of Tables 18 and 19 in a graphical format.

K562/Dox = experiment: SRB cell viability assay, daunorubicin with/without wilforlide A pretreatment; assay type: cell-based; conditions: K562/Dox (daunorubicin-resistant); 2.5 μg/ml pretreatment
From the text: Wilforlide A sensitizes the daunorubicin-resistant myelogenous leukemia line K562/Dox, to daunorubicin. […] FIG. 5 summarizes the data of Tables 20 and 21 in a graphical format.

PC3-TxR cell tumors = experiment: In vivo tumor xenograft study, chemosensitizing effect with docetaxel; parameters: species or system SCID mice
From the text: To perform this study, tumors were caused to form in fifty six severe four to six week-old, severe combined immunodeficient (SCID) male mice (Taconic Farms, Inc. Oxnard, Calif.) that weighed from 15 to 20 g were obtained and housed in cages with HEPA-filtered air (12-hr light/dark cycle) by subcutaneously injecting PC3-TxR cells in the mice. To prepare the cells for injection, the cells were suspended in a 1:1 mixture of Matrigel (BC Biosciences, Franklin Lakes, N.J., U.S.A.) and RPMI 1640 (Mediatech, Manassas, Va., or Life Technologies, Grand Island, N.Y.). Then the cells were subcutaneously implanted into planks of mice via injection. Mice that had consistently shown tumor growth for fourteen days following the injection of cells were used in the tumor studies. More specifically, these studies were initiated when the xenografted tumors reached a tumor size of about 120 mm^3, calculated by the formula for a semiepplipoid, i.e., Volume=Width2×(Length/2).

[3] = Pharmacokinetics of wilforlide A in mice (plasma, HPLC-MS/MS); assay type: in vivo; conditions: CD-1 mice; for Cmax: plasma; for T1/2: terminal elimination
Experimental: as §1
To determine the pharmacokinetics of wilforlide A in mice, wilforlide A was formulated for i.p., p.o., and i.v. administration as describe above, for doses of 6, 30, and 1.2 mg/kg, respectively. Four CD-1 mice were sacrificed prior to wilforlide A administration and at: (i) 5, 10, 15, 20, 30, and 60 min after i.p. administration; (ii) 2, 5, 10, 15, 20, and 30 min after p.o. administration; and (iii) 1, 2, 3, and 4 hours after i.v. administration. At each time point, blood was drawn via heart puncture and plasma was separated by a five min centrifution at 10000 rpm. Plasma wilforlide A concentrations were measured using a validated HPLC-MS/MS method. The peak drug concentration (Cmax) and time to peak drug concentration (Tmax) were read directly from the plasma concentration time course data, while the terminal elimination half-life (T1/2) was calculated to be 0.693/Ke, where Ke was the terminal phase elimination rate. A-C, respectfully.

Bt474-TxR = experiment: SRB cell viability assay, lapatinib with/without wilforlide A pretreatment; assay type: cell-based; conditions: BT474-TxR (lapatinib-resistant); 2.5 or 25 μg/ml pretreatment
[4] = Water solubility of wilforlide A; assay type: physicochemical
SkBr3-TxR = experiment: SRB cell viability assay, lapatinib with/without wilforlide A pretreatment; assay type: cell-based; conditions: SkBr3-TxR (lapatinib-resistant); 2.5 μg/ml pretreatment
PC3-TxR [5] = experiment: SRB cell viability assay, docetaxel with/without wilforlide A pretreatment; assay type: cell-based, human; conditions: PC3-TxR (docetaxel-resistant); 0.6-5.0 μg/ml pretreatment

CC1(C)[C@@H](O)CC[C@]2(C)[C@H]3CC=C4[C@@H]5C[C@@]6(C)C[C@H](OC6=O)[C@]5(C)CC[C@@]4(C)[C@]3(C)CC[C@@H]12 [wilforlide A, 3-epiabruslactone A]
% viable (PC3-TxR [1]; wilforlide A 0.001 μg/ml 72 h): 100.0%
mean A (PC3-TxR [1]; wilforlide A 0.001 μg/ml 72 h): 2.618
A at 565 nm (PC3-TxR [1]; wilforlide A 0.001 μg/ml 72 h): 2.599 and 2.624 and 2.607 and 2.635 and 2.593 and 2.646
% viable (PC3-TxR [1]; wilforlide A 0.1 μg/ml 72 h): 99.6%
mean A (PC3-TxR [1]; wilforlide A 0.1 μg/ml 72 h): 2.606
A at 565 nm (PC3-TxR [1]; wilforlide A 0.1 μg/ml 72 h): 2.611 and 2.592 and 2.610 and 2.617 and 2.615
% viable (PC3-TxR [1]; wilforlide A 0.333 μg/ml 72 h): 100.9%
mean A (PC3-TxR [1]; wilforlide A 0.333 μg/ml 72 h): 2.642
A at 565 nm (PC3-TxR [1]; wilforlide A 0.333 μg/ml 72 h): 2.645 and 2.618 and 2.661 and 2.646 and 2.664 and 2.617
% viable (PC3-TxR [1]; wilforlide A 1 μg/ml 72 h): 101.5%
mean A (PC3-TxR [1]; wilforlide A 1 μg/ml 72 h): 2.657
A at 565 nm (PC3-TxR [1]; wilforlide A 1 μg/ml 72 h): 2.626 and 2.629 and 2.755 and 2.658 and 2.659 and 2.616
% viable (PC3-TxR [1]; wilforlide A 3.33 μg/ml 72 h): 77.7%
mean A (PC3-TxR [1]; wilforlide A 3.33 μg/ml 72 h): 2.033
A at 565 nm (PC3-TxR [1]; wilforlide A 3.33 μg/ml 72 h): 2.082 and 1.928 and 2.081 and 1.950 and 2.070 and 2.088
% viable (PC3-TxR [1]; wilforlide A 10 μg/ml 72 h): 13.4%
mean A (PC3-TxR [1]; wilforlide A 10 μg/ml 72 h): 0.351
A at 565 nm (PC3-TxR [1]; wilforlide A 10 μg/ml 72 h): 0.399 and 0.358 and 0.348 and 0.325 and 0.320 and 0.357
% viable (PC3-TxR [1]; wilforlide A 33.3 μg/ml 72 h): 2.9%
mean A (PC3-TxR [1]; wilforlide A 33.3 μg/ml 72 h): 0.076
A at 565 nm (PC3-TxR [1]; wilforlide A 33.3 μg/ml 72 h): 0.096 and 0.072 and 0.074 and 0.073 and 0.069
% viable (PC3-TxR [1]; wilforlide A 100 μg/ml 72 h): 1.0%
mean A (PC3-TxR [1]; wilforlide A 100 μg/ml 72 h): 0.025
A at 565 nm (PC3-TxR [1]; wilforlide A 100 μg/ml 72 h): 0.023 and 0.024 and 0.033 and 0.027 and 0.018
tolerability in MTD study ([2]; 6 mg/kg i.p.): well tolerant
tolerability in MTD study ([2]; 30 mg/kg p.o.): well tolerant
tolerability in MTD study ([2]; […] i.v.): well tolerant
chemosensitizing effect to docetaxel (PC3): does not significantly enhance the sensitivity
chemosensitizing effect to docetaxel (DU145-TxR): sensitizes
chemosensitizing effect to daunorubicin (K562/Dox): sensitizes
tumor growth (PC3-TxR cell tumors; Group 3: docetaxel 20 mg/kg i.v. weekly + wilforlide A […] i.v. weekly + 6 mg/kg i.p. daily, vs other groups): significant retardation of tumor growth
tumor growth (PC3-TxR cell tumors; wilforlide A alone (Groups 6, 7)): did not significantly inhibit the tumor growth
effect on docetaxel's anti-tumor effect (PC3-TxR cell tumors; wilforlide A with docetaxel 20 mg/kg i.v.): significantly enhanced docetaxel's anti-tumor effect
Cmax ([3]; i.p. 6 mg/kg): 750 ng/mL
Cmax ([3]; p.o. 30 mg/kg): 30 ng/mL
T1/2 ([3]; i.p. 6 mg/kg): 41.0 min
T1/2 ([3]; i.v. […]): 11.2 min
T1/2 ([3]; p.o. 30 mg/kg): 25.6 min
chemosensitizing effect to lapatinib (Bt474-TxR): sensitizes
water solubility [4]: poorly water soluble
chemosensitizing effect to lapatinib (SkBr3-TxR): sensitizes
chemosensitizing effect to docetaxel (PC3-TxR [5]): sensitizes
